Reference: US4761409A, “Cephem derivatives” (Sumitomo Pharmaceuticals Company, Limited, priority 1984, dated 1988)
≈ marks a conversion by molar mass, not a printed value.

Experiments:
[1] = tested on: Staphylococcus aureus 209P; test: in vitro antimicrobial activity test (MIC); assay type: cell-based
[2] = tested on: Staphylococcus epidermidis IAM1296; test: in vitro antimicrobial activity test (MIC); assay type: cell-based
[3] = tested on: Escherichia coli NIHJ JC-2; test: in vitro antimicrobial activity test (MIC); assay type: cell-based; settings: NIHJJC2
[4] = tested on: Serratia marcescens X100; test: in vitro antimicrobial activity test (MIC); assay type: cell-based
[5] = tested on: Citrobacter freundii GN346; test: in vitro antimicrobial activity test (MIC); assay type: cell-based
[6] = oral absorbability test: urinary excretion in mice after oral administration; assay type: in vivo; settings: mouse, urine, dose: 50 mg/kg, read-out: Urinary excretion rate in mice after oral administration
[7] = tested on: resistant bacteria which produce β-lactamase; settings: background, cephem antibiotics for oral administration; cited from earlier work
[8] = tested on: bacteria; settings: background, compared with commercially available cephem antibiotics; cited from earlier work

CO/N=C(\C(=O)NC1C(=O)N2C(C(=O)O)=C(CSc3nc(C)ns3)CSC12)c1cscn1 (stereo not drawn) [Example 1, 7-[(Z)-2-Methoxyimino-2-(thiazol-4-yl)acetamido]-3-(3-methyl-1 2,4-thiadiazol-5-yl)thiomethyl-3-cephem-4-carboxylic acid]
MIC [1]: 0.1 µg/mL (≈ 0.195 µM) | MIC [2]: 1.56 µg/mL (≈ 3.04 µM) | MIC [3]: 0.1 µg/mL (≈ 0.195 µM) | MIC [4]: 0.78 µg/mL (≈ 1.52 µM) | MIC [5]: 0.78 µg/mL (≈ 1.52 µM)

CO/N=C(\C(=O)NC1C(=O)N2C(C(=O)O)=C(CSc3ncns3)CS[C@H]12)c1cscn1 (stereo partly drawn) [Example 2, 7-[(Z)-2-Methoxyimino-2-(thiazol-4-yl)acetamido]-3-(1,2,4-thiadiazol-5-yl)thiomethyl-3-cephem-4-carboxylic acid]
MIC [1]: 0.2 µg/mL (≈ 0.401 µM) | MIC [2]: 1.56 µg/mL (≈ 3.13 µM) | MIC [3]: 0.2 µg/mL (≈ 0.401 µM) | MIC [4]: 0.78 µg/mL (≈ 1.56 µM) | MIC [5]: 0.78 µg/mL (≈ 1.56 µM)

CCOC(=O)OC(C)OC(=O)C1=C(CSc2nc(C)ns2)CS[C@@H]2C(NC(=O)/C(=N\OC)c3cscn3)C(=O)N12 (stereo partly drawn) [Example 6, 1-Ethoxycarbonyloxyethyl 7-[(Z)-2-methoxyimino-2-(thiazol-4-yl)acetamido]-3-(3-methyl-1,2,4-thiadiazol-5-yl)thiomethyl-3-cephem-4-carboxylate]
dose excreted [6]: 32%

CO/N=C(\C(=O)NC1C(=O)N2C(C(=O)OCc3oc(=O)oc3C)=C(CSc3ncns3)CS[C@H]12)c1cscn1 (stereo partly drawn) [Example 15, (5-Methyl-2-oxo-1,3-dioxolen-4-yl)methyl-7-[(Z)-2-methoxyimino-2-(thiazol-4-yl)acetamido]-3-(1,2,4-thiadiazol-5-yl)thiomethyl-3-cephem-4-carboxylate]
dose excreted [6]: 32%

N[C@@H](C(=O)N[C@@H]1C(=O)N2C(C(=O)O)=C(Cl)CS[C@H]12)c1ccccc1 [cefaclor]
activity on resistant bacteria which produce β-lactamase [7]: ineffective | antimicrobial activity and width of the antimicrobial spectrum [8]: slightly inferior

N[C@@H](C(=O)N[C@@H]1C(=O)N2C(C(=O)O)=C(CSc3c[nH]nn3)CS[C@H]12)c1ccc(O)cc1 [cefatrizine]
activity on resistant bacteria which produce β-lactamase [7]: ineffective | antimicrobial activity and width of the antimicrobial spectrum [8]: slightly inferior

CC1=C(C(=O)O)N2C(=O)[C@@H](NC(=O)[C@H](N)c3ccccc3)[C@H]2SC1 [cephalexin]
activity on resistant bacteria which produce β-lactamase [7]: ineffective | antimicrobial activity and width of the antimicrobial spectrum [8]: slightly inferior
